Source: patent US20240262795A1, “PYRAZINE COMPOUNDS AS INHIBITORS OF FLT3” (Biomea Fusion, Inc., priority 2021, published 2024)
Positions count from the first letter of the chain named.

Experiments:
[1] = molecular target: T1, Ba/F3 cell lines stably expressing human FLT3-ITD (Homo sapiens, UniProt P36888, cells depend on it, form not given); assay: FLT3 mutant assay, cell viability, Ba/F3-FLT3-ITD; assay type: cell-based, mouse; details: IC50 (3 days), CellTiter-Glo; read-out: Ba/F3-FLT3-ITD Relative IC50
T1 sequence (P36888 1-993): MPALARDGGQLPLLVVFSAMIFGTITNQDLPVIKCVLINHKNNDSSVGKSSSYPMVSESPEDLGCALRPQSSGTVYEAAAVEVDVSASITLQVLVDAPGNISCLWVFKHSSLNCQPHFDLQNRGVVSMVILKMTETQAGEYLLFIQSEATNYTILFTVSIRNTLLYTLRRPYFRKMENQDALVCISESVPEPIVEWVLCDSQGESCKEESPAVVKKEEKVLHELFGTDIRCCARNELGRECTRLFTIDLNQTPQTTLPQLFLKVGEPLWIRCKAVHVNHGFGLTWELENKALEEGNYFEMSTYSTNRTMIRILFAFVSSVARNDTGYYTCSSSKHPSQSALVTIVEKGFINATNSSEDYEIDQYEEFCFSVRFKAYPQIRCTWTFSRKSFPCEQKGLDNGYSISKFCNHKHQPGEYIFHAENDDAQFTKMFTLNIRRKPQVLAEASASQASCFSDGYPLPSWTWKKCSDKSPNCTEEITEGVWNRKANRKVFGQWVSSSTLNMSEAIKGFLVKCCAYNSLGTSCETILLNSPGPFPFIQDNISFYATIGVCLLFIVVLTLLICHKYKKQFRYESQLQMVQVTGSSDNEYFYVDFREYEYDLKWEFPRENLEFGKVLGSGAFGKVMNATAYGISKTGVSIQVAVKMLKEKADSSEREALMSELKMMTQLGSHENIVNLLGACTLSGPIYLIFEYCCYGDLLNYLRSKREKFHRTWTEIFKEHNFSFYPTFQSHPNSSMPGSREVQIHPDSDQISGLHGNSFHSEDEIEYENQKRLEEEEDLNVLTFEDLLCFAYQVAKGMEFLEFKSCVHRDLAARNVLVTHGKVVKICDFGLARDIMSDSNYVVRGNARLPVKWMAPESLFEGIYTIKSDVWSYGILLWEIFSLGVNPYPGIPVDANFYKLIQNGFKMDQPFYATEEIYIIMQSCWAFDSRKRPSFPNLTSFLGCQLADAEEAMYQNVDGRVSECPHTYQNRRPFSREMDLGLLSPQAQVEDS
Procedure: (§1) Activity of compounds on FLT3 activating mutations were assessed using Ba/F3 cell lines (mouse pro-B cell line) stably expressing human FLT3-ITD, FLT3-ITD-D835Y or FLT3-ITD-F691L. […] The supernatant collected were concentrated with PEG8000 and used to infect Ba/F3 cells at 1-5 MOI in serum-free media with polybrene. Infected Ba/F3 cells were selected in presence of puromycin, and surviving cells verified by sequencing and/or protein detection assay. Constitutive expression of the activating kinase transforms the Ba/F3 cells into IL-3-independent growth allowing them to be cultured in the absence of IL-3. […] For use in compound testing, cells in exponential growth phase were harvested, counted, and resuspended at the required cell density. Cell viability assays were performed in 96-well assay plates and 90 μL of cell suspension seeded per well. Serial dilutions of the test compounds and assay controls and were freshly prepared for the assay. Nine-point 3× serial dilutions were prepared in 100% DMSO (400× stock) and subsequently diluted in cell culture media to obtain 10× stocks. Ten microliters of the 10× stock serial dilutions were added to the appropriate wells (triplicate wells per condition) in the assay plate. […] Assay plates were incubated for 3 days in at 37° C. in a humidified incubator with 5% CO2.
(§2) Inhibition rate (IR) of the tested compounds was determined by the following formula: IR (%)=(1−(RLU compound−RLU blank)/(RLU control−RLU blank))*100%. The inhibitions of different dose of compound were calculated in Excel file, and the dose responses were analysed using GraphPad Prism to evaluate related parameters, such as Bottom, Top and IC50. For the IC50 analysis by GraphPad Prism, the equation below was used to fit curve: Y=Bottom+(Top−Bottom)/(1+10^((LogIC50−X)*HillSlope))

[2] = molecular target: T2, Ba/F3 cell lines stably expressing human FLT3-ITD-F691L (Homo sapiens, UniProt P36888, F691L, cells depend on it, form not given); assay: FLT3 mutant assay, cell viability, Ba/F3-FLT3-ITD-F691L; assay type: cell-based, mouse; details: IC50 (3 days), CellTiter-Glo; read-out: Ba/F3-FLT3-ITD-F691L Relative IC50
T2 construct: Ba/F3-FLT3-ITD-F691L Relative IC50
T2 sequence (P36888 1-993 F691L): T1 sequence (P36888 1-993) with F691L
Procedure: as §1, §2

**Q.** How did the GI50 [1] turn out when `CCc1nc(C(N)=O)c(Nc2cccc(CCNC(=O)CN(C)C(=O)/C=C/CN(C)C)c2)nc1N(C)CC` [Compound 252, (E)-3-((3-(2-(2-(4-(dimethylamino)-N-methylbut-2-enamido)acetamido)ethyl)phenyl)amino)-6-ethyl-5-(ethyl (methyl)amino) pyrazine-2-carboxamide] was run?
**A.** < 1 nM

**Q.** What about the GI50 [2] of the same compound?
**A.** 1 to 10 nM

**Q.** How did the GI50 [1] turn out when `CCc1nc(C(N)=O)c(Nc2cc(F)cc(CCNC(=O)CN(C)C(=O)/C=C/CN3CCC3)c2)nc1C1CC1` [Compound 516, (E)-3-((3-(2-(2-(4-(azetidin-1-yl)-N-methylbut-2-enamido)acetamido)ethyl)-5-fluorophenyl)amino)-5-cyclopropyl-6-ethylpyrazine-2-carboxamide] was run?
**A.** 1 to 10 nM

**Q.** And the GI50 [2]?
**A.** 10 to 100 nM

**Q.** With `Cc1nc(C(N)=O)c(Nc2cccc(CCNC(=O)CN(C)C(=O)/C=C/CN(C)C)c2)nc1N(C)C(C)C` [Compound 250, (E)-3-((3-(2-(2-(4-(dimethylamino)-N-methylbut-2-enamido)acetamido)ethyl)phenyl)amino)-5-(isopropyl(methyl)amino)-6-methylpyrazine-2-carboxamide] as the compound, how does the GI50 [1] read?
**A.** 1 to 10 nM

**Q.** And the GI50 [2]?
**A.** 1 to 10 nM

**Q.** With `CCc1nc(C(N)=O)c(Nc2cccc(CCNC(=O)[C@H](C)N(C)C(=O)/C=C/CNC)c2)nc1N(C)C(C)C` [Compound 307, (S,E)-6-ethyl-5-(isopropyl(methyl)amino)-3-((3-(2-(2-(N-methyl-4-(methylamino)but-2-enamido)propanamido)ethyl)phenyl)amino)pyrazine-2-carboxamide] as the compound, how does the GI50 [1] read?
**A.** 1 to 10 nM

**Q.** What about the GI50 [2] of the same compound?
**A.** 10 to 100 nM
